Patent US6599900B2, “1-oxa-3,9-diaza-spiro[5,5]undecan-2-ones” (Syntex (U.S.A.) LLC, priority 2001, dated 2003)
Where a name gives a salt, the structure may show the parent alone. One block for each molecule: values may come before it.

Target: T1, human NK1 receptor (Homo sapiens, UniProt P25103)
T1 construct: expressed in transfected cells; host or cells: CHO cells infected with the Semliki virus expression system; membrane suspension used
Assay: [3H]substance P binding at human NK1 receptors in CHO cells
Conditions: affinity to the NK-1 receptor; [3H]substance P 0.6 nM displacement, CHO cell membranes, 60 min at room temperature
Description: The affinity of test compounds for the NK1 receptor was evaluated at human NK1 receptors in CHO cells infected with the human NK1 receptor (using the Semliki virus expression system) and radiolabelled with [^3H]substance P (final concentration 0.6 nM). Binding assays were performed in HEPES buffer (50 mM, pH 7.4) containing BSA (0.04%) leupeptin (8 μg/ml), MnCl2 (3 mM) and phosphoramidon (2 μM). Binding assays consisted of 250 μl of membrane suspension (1.25×10^5 cells/assay tube), […] of buffer of displacing agent and 125 μl of [^3H]substance P. Displacement curves were determined with at least seven concentrations of the compound. The assay tubes were incubated for 60 min at room temperature after which time the tube contents were rapidly filtered under vacuum through GF/C filters presoaked for 60 min with PEI (0.3%) with 2×2 ml washes of HEPES buffer (50 mM, pH 7.4). The radioactivity retained on the filters was measured by scintillation counting. All assays were performed in triplicate in at least 2 separate experiments.

T1 sequence (P25103 whole entry): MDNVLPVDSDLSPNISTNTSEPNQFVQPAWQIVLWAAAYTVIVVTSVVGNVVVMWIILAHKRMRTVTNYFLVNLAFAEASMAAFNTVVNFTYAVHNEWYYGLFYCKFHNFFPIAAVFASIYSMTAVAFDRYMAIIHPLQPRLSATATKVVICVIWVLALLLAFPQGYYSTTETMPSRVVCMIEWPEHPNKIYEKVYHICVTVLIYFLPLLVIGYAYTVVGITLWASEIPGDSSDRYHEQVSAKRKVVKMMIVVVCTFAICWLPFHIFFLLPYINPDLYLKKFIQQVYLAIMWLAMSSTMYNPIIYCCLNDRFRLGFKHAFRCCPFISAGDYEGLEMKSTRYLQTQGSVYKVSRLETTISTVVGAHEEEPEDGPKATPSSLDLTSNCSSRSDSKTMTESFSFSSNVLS

Structure (SMILES): O=C(c1cc(C(F)(F)F)cc(C(F)(F)F)c1)N1CCC2(CC1)OC(=O)N(C1CCOCC1)CC2c1ccccc1 (racemic) [Example 13, (5RS)-9-(3,5-bis-trifluoromethyl-benzoyl)-5-phenyl-3-(tetrahydro-pyran-4-yl)-1-oxa-3,9-diaza-spiro[5.5]undecan-2-one]
Ki: 19.1 nM

Structure (SMILES): CN(C)C(=O)CN1CC(c2ccccc2)C2(CCN(C(=O)c3cc(C(F)(F)F)cc(C(F)(F)F)c3)CC2)OC1=O (racemic) [Example 14, (5RS)-2-[9-(3,5-bis-trifluoromethyl-benzoyl)-2-oxo-5-phenyl-1-oxa-3,9-diaza-spiro[5.5]undec-3-yl]-N,N-dimethyl-acetamide]
Ki: 6.61 nM

Structure (SMILES): O=C1OC2(CCN(C(=O)c3cc(C(F)(F)F)cc(C(F)(F)F)c3)CC2)C(c2ccc(F)c(F)c2)CN1CC(F)F (racemic) [Example 15, (5RS)-9-(3,5-bis-trifluoromethyl-benzoyl)-3-(2,2-difluoro-ethyl)-5-(3,4-difluoro-phenyl)-1-oxa-3,9-diaza-spiro[5.5]undecan-2-one]
Ki: 11.5 nM

Structure (SMILES): O=C1OC2(CCN(C(=O)c3cc(C(F)(F)F)cc(C(F)(F)F)c3)CC2)C(c2ccccc2)CN1Cc1cccnc1 (racemic) [Example 16, (5RS)-9-(3,5-bis-trifluoromethyl-benzoyl)-5-phenyl-3-pyridin-3-ylmethyl-1-oxa-3,9-diaza-spiro[5.5]undecan-2-one]
Ki: 6.17 nM

Structure (SMILES): CN1CC(c2ccccc2)C2(CCN(C(=O)c3cc(C(F)(F)F)cc(C(F)(F)F)c3)CC2)OC1=O (racemic) [Example 18, (5RS)-9-(3,5-bis-trifluoromethyl-benzoyl)-3-methyl-5-phenyl-1-oxa-3,9-diaza-spiro[5.5]undecan-2-one]
Ki: 15.5 nM

Structure (SMILES): COCCN1CC(c2ccc(F)c(F)c2)C2(CCN(C(=O)c3cc(C(F)(F)F)cc(C(F)(F)F)c3)CC2)OC1=O (racemic) [Example 19, (5RS)-9-(3,5-bis-trifluoromethyl-benzoyl)-5-(3,4-difluoro-phenyl)-3-(2-methoxy-ethyl)-1-oxa-3,9-diaza-spiro[5.5]undecan-2-one]
Ki: 19.1 nM

Structure (SMILES): CN1CC(c2ccc(F)c(F)c2)C2(CCN(C(=O)c3cc(C(F)(F)F)cc(C(F)(F)F)c3)CC2)OC1=O (racemic) [Example 20, (5RS)-9-(3,5-bis-trifluoromethyl-benzoyl)-5-(3,4-difluoro-phenyl)-3-methyl-1-oxa-3,9-diaza-spiro[5.5]undecan-2-one]
Ki: 30.9 nM

Structure (SMILES): O=C1OC2(CCN(C(=O)c3cc(C(F)(F)F)cc(C(F)(F)F)c3)CC2)C(c2ccccc2)CN1CCCO (racemic) [Example 21, (5RS)-9-(3,5-bis-trifluoromethyl-benzoyl)-3-(3-hydroxy-propyl)-5-phenyl-1-oxa-3,9-diaza-spiro[5.5]undecan-2-one]
Ki: 6.76 nM

Structure (SMILES): O=C1OC2(CCN(C(=O)c3cc(C(F)(F)F)cc(C(F)(F)F)c3)CC2)C(c2ccccc2)CN1CCO (racemic) [Example 22, (5RS)-9-(3,5-bis-trifluoromethyl-benzoyl)-3-(2-hydroxy-ethyl)-5-phenyl-1-oxa-3,9-diaza-spiro[5.5]undecan-2-one]
Ki: 15.8 nM

Structure (SMILES): COc1nc(OC)nc(N2CC(c3ccccc3)C3(CCN(C(=O)c4cc(C(F)(F)F)cc(C(F)(F)F)c4)CC3)OC2=O)n1 (stereo not drawn) [Example 17, (5RS)-9-(3,5-bis-trifluoromethyl-benzoyl)-3-(4,6-dimethoxy-[1,3,5]triazin-2-yl)-5-phenyl-oxa-1-3,9-diaza-spiro[5.5]undecan-2-one]
Ki: 13.2 nM

Other lines, results leading:

Ki: 3.39 nM
Structure (SMILES): O=C1OC2(CCN(C(=O)c3cc(C(F)(F)F)cc(C(F)(F)F)c3)CC2)C(c2ccccc2)CN1CCCN1CCCC1 (racemic) [Example 23, (5RS)-9-(3,5-bis-trifluoromethyl-benzoyl)-5-phenyl-3-(3-pyrrolidin-1-yl-propyl)-1-oxa-3,9-diaza-spiro[5.5]undecan-2-one]

Ki: 3.47 nM
Structure (SMILES): O=C1OC2(CCN(C(=O)c3cc(C(F)(F)F)cc(C(F)(F)F)c3)CC2)C(c2ccccc2)CN1CCCN1CCOCC1 (racemic) [Example 24, (5RS)-9-(3,5-bis-trifluoromethyl-benzoyl)-3-(3-morpholin-4-yl-propyl)-5-phenyl-1-oxa-3,9-diaza-spiro[5.5]undecan-2-one]

Ki: 4.07 nM
Structure (SMILES): O=C1OC2(CCN(C(=O)c3cc(C(F)(F)F)cc(C(F)(F)F)c3)CC2)C(c2ccccc2)CN1CCCN1CCC(O)C1 (racemic) [Example 26, (5RS)-9-(3,5-bis-trifluoromethyl-benzoyl)-3-[3-(3-hydroxy-pyrrolidin-1-yl)-propyl]-5-phenyl-1-oxa-3,9-diaza-spiro[5.5]undecan-2-one]

Ki: 7.41 nM
Structure (SMILES): CN(C)CCN1CC(c2ccccc2)C2(CCN(C(=O)c3cc(C(F)(F)F)cc(C(F)(F)F)c3)CC2)OC1=O (racemic) [Example 28, (5RS)-9-(3,5-bis-trifluoromethyl-benzoyl)-3-(2-dimethylamino-ethyl)-5-phenyl-1-oxa-3,9-diaza-spiro[5.5]undecan-2-one hydrochloride]

Ki: 10.5 nM
Structure (SMILES): CN1CCN(CCCN2CC(c3ccccc3)C3(CCN(C(=O)c4cc(C(F)(F)F)cc(C(F)(F)F)c4)CC3)OC2=O)CC1 (racemic) [Example 29, (5RS)-9-(3,5-bis-trifluoromethyl-benzoyl)-3-[3-(4-methyl-piperazin-1-yl)-propyl]-5-phenyl-1-oxa-3,9-diaza-spiro[5.5]undecan-2-one]

Ki: 11.5 nM
Structure (SMILES): O=C1OC2(CCN(C(=O)c3cc(C(F)(F)F)cc(C(F)(F)F)c3)CC2)C(c2ccccc2)CN1CCN1CCCC1 (racemic) [Example 30, (5RS)-9-(3,5-bis-trifluoromethyl-benzoyl)-5-phenyl-3-(2-pyrrolidin-1-yl-ethyl)-1-oxa-3,9-diaza-spiro[5.5]undecan-2-one; hydrochloride]

Ki: 3.47 nM
Structure (SMILES): CN(C)CCCN1CC(c2ccccc2)C2(CCN(C(=O)c3cc(C(F)(F)F)cc(C(F)(F)F)c3)CC2)OC1=O (stereo not drawn) [Example 25, (5RS)-9-(3,5-bis-trifluoromethyl-benzoyl)-3-(3-dimethylamino-4-yl-propyl)-5-phenyl-1-oxa-3,9-diaza-spiro[5.5]undecan-2-one]

Ki: 6.31 nM
Structure (SMILES): O=C1OC2(CCN(C(=O)c3cc(C(F)(F)F)cc(C(F)(F)F)c3)CC2)C(c2ccccc2)CN1CCN1CCOCC1 (stereo not drawn) [Example 27, (5RS)-9-(3,5-2is-trifluoromethyl-benzoyl)-3-(2-morpholin-4-yl-ethyl)-5-phenyl-1-oxa-3,9-diaza-spiro[5.5]undecan-2-one hydrochloride]
